Data reported in patent US7655816B2, “Method for stabilizing menthyl lactate” (Millennium Specialty Chemicals, priority 2007, dated 2010).

Assay type: physicochemical
Conditions: for GC purity after storage / acid number after storage / appearance after storage / odor after storage: after storage for 39 months in a closed glass jar
Text: Precipitation according to the method of the invention provides menthyl lactate having improved stability compared with that of an unprecipitated sample. By “improved stability,” we mean that one or more important physical properties of the menthyl lactate becomes more constant as a function of time as a consequence of precipitation when compared with menthyl lactate that has not been precipitated according to the method. Important physical properties include, without limitation, appearance, dimensional stability, color, texture, organoleptic properties (odor, flavor), melting point, acid number, GC purity, optical rotation, pH, solubility, and the like. Preferably, the ML retains its desirable physical property or properties even after prolonged storage. “Prolonged” depends on the particular application, but it is preferably at least one week, more preferably at least one month, and most preferably at least one year.
After storage for 39 months in a closed glass jar, the product is evaluated for quality.
A sample of solid menthyl lactate from the same batch that was used in Example 1 is stored under similar conditions for the same 39 months. […] Mp: 39.3° C.; GC purity: <96%; acid number: 32 mg KOH/g.

| Compound | melting point after storage [°C] | GC purity after storage [%] | acid number after storage [mg KOH/g] | appearance after storage | odor after storage |
| --- | --- | --- | --- | --- | --- |
| CC1CCC(C(C)C)C(OC(=O)C(C)O)C1 (stereo not drawn) [Comparative Example 3, menthyl lactate] | 36.7 | 92 | 20 | shrinks | strong, pungent acidic odor |
| CC1CCC(C(C)C)C(OC(=O)C(C)O)C1 (stereo not drawn) [Example 1, menthyl lactate] | 43.9 | ≥ 99.8 | 0.15 | fine, white crystalline powder | faint, minty |
| CC1CCC(C(C)C)C(OC(=O)C(C)O)C1 (stereo not drawn) [compound 2, menthyl lactate] | 39.3 | < 96 | 32 |  | strong, pungent acidic odor |
| CC1CCC(C(C)C)C(OC(=O)C(C)O)C1 (stereo not drawn) [Comparative Example 4, menthyl lactate] | 43.6 |  | 0.27 |  | some deterioration of odor quality |
| CC1CCC(C(C)C)C(OC(=O)C(C)O)C1 (stereo not drawn) [compound 5, menthyl lactate] | 43.7 | 97 | 0.32 |  | strong, pungent acidic odor |
